Reference: patent publication US20260283997A1, “METHODS FOR INHIBITING RESISTANCE TO IMMUNE BLOCKADE INHIBITOR THERAPY” (H. LEE MOFFITT CANCER CENTER AND RESEARCH INSTITUTE, INC., priority 2023, published 2026)
“Also recorded” adds a separate entry of the source.

Key:
[1] = tested on: resected stages IIIC/IV melanoma; assay: Phase II trial of adjuvant ipilimumab with a peptide vaccine, clinical outcome; assay type: in vivo, human
Description: Patient samples. […] Peripheral blood leukocytes were collected before initiation of ipilimumab treatment and at approximately 150 days after the first treatment. PBMCs were available and were de-identified before inclusion in our current study.
Statistical analyses. We conducted statistical analyses to determine whether there is a relationship between levels of pSTAT1, nSTAT1, and RFS. Survival outcome was summarized using Kaplan-Meier method and log-rank test was performed to evaluate the association of survival outcome with pSTAT1 and nSTAT1 levels dichotomized by the median-split method. […] Levene's F-test for the homogeneity of variance was used to compare variance of pSTAT1 level among patients with different RFS rates. Patients were also stratified using the median-split method for a survival comparison analysis of [nSTAT1]post-[nSTAT1]pre with ipilimumab treatment. […] A two-sided P value of <0.05 was considered statistically significant. Treatment outcome is reported at the end of the follow up period for the parent trial (5 years).
Patient demographics. Pre- and post-therapy PBMCs were available from 35 patients with resected stages IIIC/IV melanoma.

[2] = tested on: STAT1; assay: pSTAT1 flow cytometry of patient PBMCs pre versus post ipilimumab; assay type: in vivo, human
Description: FIGS. 22A, 22B, and 22C show the paired pSTAT1 level pre versus post ipilimumab treatment without (FIG. 22A) Interferon-alpha stimulation, after (FIG. 22B) 10^2 U/mL Interferon-alpha stimulation, and (FIG. 22C) 10^4 U/mL Interferon-alpha stimulation.
(§1) Flow cytometry and mass spectrometry analyses. Flow cytometric analysis of pSTAT1 and liquid chromatography-tandem mass spectrometry (LC-MS-MS) analysis of nitrated STAT1 (nSTAT1) were conducted on all samples. For flow cytometry studies, frozen PBMCs were thawed at 37° C., washed with culturing media, and allowed to rest overnight in complete media at 5% CO2 at 37° C. PBMCs were stimulated with interferon-α (Miltenyi Biotec, Cambridge, MA) at 0, 10^2 U/mL, and 10^4 U/mL and incubated for 15 minutes in media.
The live/dead marker Zombie NIR (BioLegend, San Diego, CA) was used before permeabilization to distinguish live cells. The samples were permeabilized using the FIX & PERM Cell Permeabilization Kit with methanol modification (Fisher Scientific, Hampton, MA) and fixed at −20° C. for a minimum of 2 hours. pSTAT1 was detected by a pSTAT1 antibody (AF488; BD Biosciences, San Jose, CA). Flow cytometry data were collected either on Canto or LSRII flow cytometers (BD Biosciences, San Jose, CA), and data were analyzed in FCS Express (De Novo Software, Pasadena, CA). […]

[3] = tested on: stage IIIB through IV melanoma; conditions: adjuvant, cited from earlier work; for 12-month RFS rate: stage IIIB through IV melanoma
[4] = tested on: STAT1; assay: pSTAT1 flow cytometry of normal donor PBMCs stimulated with interferon-alpha; assay type: cell-based, human
Description: FIGS. 20A, 20B, and 20C show Interferon-alpha stimulation of normal donors PBMCs.
as §1
The live/dead marker Zombie NIR (BioLegend, San Diego, CA) was used before permeabilization to distinguish live cells. The samples were permeabilized using the FIX & PERM Cell Permeabilization Kit with methanol modification (Fisher Scientific, Hampton, MA) and fixed at −20° C. for a minimum of 2 hours. pSTAT1 was detected by a pSTAT1 antibody (AF488; BD Biosciences, San Jose, CA). Flow cytometry data were collected either on Canto or LSRII flow cytometers (BD Biosciences, San Jose, CA), and data were analyzed in FCS Express (De Novo Software, Pasadena, CA). Measurement of patient-derived PBMCs for nSTAT1 and native STAT1 via LC-MS-MS SRM experiments was performed. […]

[5] = tested on: antigen presentation from DCs to CD4+ T cells; assay: DC antigen presentation to OT-II CD4+ T cells, [3H]-thymidine incorporation; assay type: cell-based, mouse; conditions: for MDSC inhibition of antigen presentation in the presence of iNOS inhibitor: MDSCs derived from B16 melanoma, OVA peptide stimulus
Description: For space constraints only the OVA peptide stimulus is depicted in B and C.
The effects of NO on DC function using transgenic mice were evaluated that express a T cell receptor (TCR) specific for a defined antigen, namely OVA. […] Levels of SNAP or other NO donors such as deta-NONOate can be adjusted to mimic the physiological concentration of NO within MDSCs and be utilized to directly measure binding of tetramers to the TCR complex. To simulate a real world scenario of antigen expressed naturally by the B16 tumors as advised by the reviewers, We can utilize transgenic mice that express a T cell receptor (TCR) specific for the Tyrosinase-Related Protein 1 (Trp-1).

[6] = tested on: B16 melanoma cells; assay: Cytotoxicity of PMEL CD8 T cells against gp-100 coated B16 cells, flow cytometry; assay type: cell-based; conditions: 100 μM; p=0.02
Description: Cytoxicity was measured via flow cytometry with CellTrace™ Far Red (B16 cells) and a live/dead marker (Zombie™ Green).

[7] = tested on: STAT1; assay: Nitrated STAT1 by immunoblot after nitrated tyrosine immunoprecipitation in normal donor PBMC; assay type: cell-based; conditions: normal donor human PBMC
Source text: An increased [nSTAT1]/[STAT1] ratio can be associated with resistance to anti-PD-1 therapy. Unfractionated PBMC samples are utilized for the mass spectrometry experiments as they are routinely collected from patients and with the expectation of STAT1 having increased nitration (FIG. 4). A second aliquot of PBMCs from the patients can be stimulated in parallel with IFN and subsequent downstream activation determined via measurement of phosphorylated STAT1. Activation of STAT1 can be measured by intracellular staining for activated (i.e. phosphorylated) STAT1 using flow cytometry. IFN responsiveness decreases by ~30% in metastatic cancer patients. There is an inverse relationship between the levels of pSTAT1 and levels of nitrated STAT1. As a control, STAT1 nitration can be measured in normal donor PBMCs treated with SNAP via immunoblot (FIG. 13). As such, PBMCs from melanoma patients can be compared to normal donors. […] Additional nitrated proteins can be quantified in the future via LC-MRM (Liquid Chromatography, multiple reaction monitoring) including the targets outlined in the introductory material (assay requires <200,000 cells); and can expand the list of which nitration events are important for response to anti-PD1 therapy in case STAT1 is not the only important target.

[8] = tested on: T cells; assay: T cell proliferation after tetanus toxoid antigen presentation from human DC in PBMC sample; assay type: cell-based; conditions: tetanus toxoid 1 ug/ul
[9] = tested on: stage III melanoma; conditions: cited from earlier work
[10] = tested on: B16 melanoma; assay: PD-1 refractory B16 melanoma model; assay type: in vivo, mouse
Source text: NCX-4016 is a nitroaspirin and inhibits the nitric oxide synthase via a negative feedback mechanism. These compounds are available for clinical trial use, and have a toxicity profile that is favorable for evaluation in patients with advanced malignancies. I predict nitroaspirin compounds in combination with anti-PD-1 therapy can rescue the ability to stimulate CD4^+ T cells and decrease tumor growth. […] We can use nitroaspirin alone and along with anti-PD-1 in therapeutically achievable doses in the murine B16 melanoma model to measure tumor growth curves and obtain specimens for analyses.

[11] = n = 35, end of follow up period (5 years)

What does the source list for “ipilimumab: Monoclonal antibody against CTLA-4”?
RFS, 3 mg/kg vs 10 mg/kg ([1]; Log rank P-value=0.96): no statistical significant differences in RFS; Treatment outcome AWD (alive with disease), Percentage [1, 11]: 6%; Treatment outcome DOD (died of disease), Percentage [1, 11]: 17%; Treatment outcome NED (no evidence of disease), Percentage [1, 11]: 77%; levels of STAT1 pre versus post treatment ([2]; 10 mg/kg cohort, t-test, p<0.01): statistically significant increase; changes in pSTAT1 between the 10 mg/kg and 3 mg/kg cohorts ([2]; 150 days post treatment): no statistically significant changes in pSTAT1; 12-month RFS rate [3]: 60.8%

With interferon-α as the compound, how does the “pSTAT1 levels with increasing interferon levels” value [4] read?
The value was “concentration-dependent increase in pSTAT1 levels”.

And the “concentration showing near-maximum phosphorylation of STAT1” value ([4]; 15 minutes of treatment)?
The value was 500 U/ml.

With “nivolumab: Monoclonal antibody against PD-1” as the compound, how does the “12-month RFS rate” value [3] read?
The value was 70.5%.

And the “toxicity compared to ipilimumab” value [3]?
Its value is “significantly decreased toxicity”.

Which results are given for `CC(=O)NC(C(=O)O)C(C)(C)SN=O` (racemic) [SNAP, S-Nitroso-N-Acetyl-D,L-Penicillamine]?
DC antigen presentation to CD4+ T cells (proliferation of OT-II T cells) ([5]; nitric oxide donor SNAP, DCs and CD4+ T cells ratio 1:4 from OT-II mouse): inhibit DC antigen presentation to CD4+ T cells; cytotoxicity of target B16 melanoma cells by effector PMEL CD8 T cells [6]: reduced; levels of nitrated STAT1 [7]: elevated levels of nitrated STAT1; proliferation of T cells after antigen presentation of tetanus toxoid [8]: decreases proliferation of T cells

With `COC(=O)[C@@H](N)CCCNC(=N)N[N+](=O)[O-]` [L-NAME, L-nitroarginine methyl ester] as the compound, how does the “MDSC inhibition of antigen presentation in the presence of iNOS inhibitor” value [5] read?
The value was “this effect was abrogated”.

With “pembrolizumab: Monoclonal antibody against PD-1” as the compound, how does the “efficacy compared to interferon-α or ipilimumab” value [9] read?
Its value is “increased efficacy”.

For `CC(=O)Oc1ccccc1C(=O)Oc1cccc(CO[N+](=O)[O-])c1` [NCX-4016], which “MDSC inhibition of antigen presentation in the presence of iNOS inhibitor” value [5] is on record?
The value was “this effect was abrogated”.

What about the “iNOS expression with iNOS inhibitor in-vivo” value ([10]; B16 melanoma model) of the same compound?
Its value is “iNOS expression is decreased”.

What about the “efficacy in combination with anti-PD1 blockade” value ([10]; PD-1 refractory B16 melanoma model, combination with anti-PD-1) of the same compound?
The value was “more efficacious than either treatment alone; also recorded: increases the efficacy of anti-PD1 blockade”.
